Laboratory results from US20250009819A1, “NOVEL PROBIOTICS AND USE THEREOF” (PBLBIOLAB CO., LTD., priority 2021, published 2025).

Assays:
TNF-α = TNF-α expression in LPS-treated macrophages (ELISA); assay type: cell-based, C57BL/6 mice; details: macrophages treated with lactic acid bacteria and LPS for 24 hours
Procedure: (§1) C57BL/6 mice (male, 6 weeks old, 20-23 g) were subjected to an intraperitoneal injection of 2 ml of sterile 4% thioglycolate solution, and after 96 hours, the mice were anesthetized and injected with 8 ml of RPMI 1640 medium through the peritoneal cavity. Then, after 5-10 minutes, the RPMI medium (macrophages) in the mouse peritoneal cavity was extracted, centrifuged at 1000 g for 10 minutes, and washed again with RPMI 1640 medium twice. Macrophages were seeded in 24-well plates at a count of 0.5×10^6 in each well, and treated with lactic acid bacteria and LPS, an inflammatory response-inducing substance, for 24 hours. TNF-α and IL-10 cytokine expression amount in the culture supernatant was then measured by ELISA Kit.

IL-10 = IL-10 expression in LPS-treated macrophages (ELISA); assay type: cell-based, C57BL/6 mice; details: macrophages treated with lactic acid bacteria and LPS for 24 hours
Procedure: as §1

Clostridium difficile = Clostridium difficile proliferation in gut microbiota (PCR); assay type: cell-based; details: human feces culture; lactic acid bacteria 1×10^6 CFU/mL; anaerobic 24 hr
Procedure: Fresh human feces were suspended in anaerobic medium (GAM, Nissui Pharmaceutical Co., Ltd., Japan) and allowed to stand for 10 min. The supernatant was diluted with 10,000-fold anaerobic medium, 0.05 mL of the dilution was transplanted into 5 mL of freshly made anaerobic medium, and lactic acid bacteria (1×10^6 CFU/mL) were implanted and incubated anaerobically for 24 hr. This culture medium was divided into two, one was centrifuged (5000 rpm, 20 minutes), the precipitated DNA was isolated using the QIAamp DNA stool mini kit (Qiagen, Germany), and Clostridium difficile (primer: forward, 5′-[…]-3′ (SEQ ID NO: 4); reverse, 5′-[…]-3′ (SEQ ID NO: 5) was quantified by PCR. The reaction product was first treated at 95° C. for 30 seconds, followed by 42 cycles of 5 seconds at 95° C. and 30 seconds at 72° C. for analysis. In addition, one culture medium was sonicated, centrifuged, and filter-sterilized, and the amount of LPS in the supernatant was measured using an ELISA kit.

[1] = Antioxidant activity (DPPH, in vitro); assay type: biochemical; details: DPPH 0.2 mM; lactic acid bacteria suspension 1×10^8 CFU/ml; 37° C. 20 min
Procedure: DPPH (2,2-Diphenyl-1-picrylhydrazyl) was dissolved in ethanol to a concentration of 0.2 mM to prepare DPPH solution. Lactic acid bacteria suspension (1×10^8 CFU/ml) or vitamin C solution (1 g/ml) was added to 0.1 ml of the above DPPH solution and incubated at 37° C. for 20 min. The culture was centrifuged at 3000 rpm for 5 min to obtain a supernatant. The absorbance of the supernatant was then measured at 517 nm and the antioxidant activity of the lactic acid bacteria was calculated.

Neuropeptide Y (NPY) = Neuropeptide Y (NPY) expression in PC12 phaeochromocytoma cells; assay type: cell-based; details: LPS 200 ng/ml; lactic acid bacteria 1×10^4 CFU/ml; 24 hr
Procedure: (§2) PC12 cells obtained from the Korean Cell Line Bank were cultured in DMEM medium supplemented with 10% FBS and 1% antibiotics, and dispensed at 1×10^6 cells per well in a 12-well plate. Then, LPS (200 ng/ml) was added to each well along with lactic acid bacteria (1×10^4 CFU/ml) and incubated for 24 hr. The cells and supernatants were collected, sonicated and centrifuged, and the amount of NPY in the supernatant was measured by ELISA kit.

gut microbiota = assay: LPS production in gut microbiota (ELISA); assay type: cell-based; details: human feces culture; lactic acid bacteria 1×10^6 CFU/mL; anaerobic 24 hr
Procedure: Fresh human feces were suspended in anaerobic medium (GAM, Nissui Pharmaceutical Co., Ltd., Japan) and allowed to stand for 10 min. The supernatant was diluted with 10,000-fold anaerobic medium, 0.05 mL of the dilution was transplanted into 5 mL of freshly made anaerobic medium, and lactic acid bacteria (1×10^6 CFU/mL) were implanted and incubated anaerobically for 24 hr.

BDNF = BDNF expression in SH-SY5Y cells; assay type: cell-based; details: LPS 200 ng/ml; lactic acid bacteria 1×10^4 CFU/ml; 24 h
Procedure: as §2, with “SH-SY5Y” for “PC12”, “2×10^6” for “1×10^6”, “h.” for “hr.”, “BDNF” for “NPY”

Bifidobacterium adolescentis NK220
Macrophage Inhibition of TNF-α expression (TNF-α): + (weakly (+; >20-60%)) | Macrophage Induction of IL-10 expression (IL-10): + (weakly (+; >20-60%)) | Gut microbiota Inhibition of difficile bacteria proliferation (Clostridium difficile): + (weakly (+; >20-60%)) | Antioxidant activity [1]: + (weakly (+; >20-60%)) | PC12 cell Induction of NPY expression (Neuropeptide Y (NPY)): − (not or less than 20% (−; <20%)) | Gut microbiota Inhibition of LPS production (gut microbiota): − (not or less than 20% (−; <20%)) | SHSY5Y cell Induction of BDNF expression (BDNF): + (weakly (+; >20-60%))

Bifidobacterium adolescentis NK221
Macrophage Inhibition of TNF-α expression (TNF-α): − (not or less than 20% (−; <20%)) | Macrophage Induction of IL-10 expression (IL-10): − (not or less than 20% (−; <20%)) | Gut microbiota Inhibition of difficile bacteria proliferation (Clostridium difficile): + (weakly (+; >20-60%)) | Antioxidant activity [1]: + (weakly (+; >20-60%)) | PC12 cell Induction of NPY expression (Neuropeptide Y (NPY)): + (weakly (+; >20-60%)) | Gut microbiota Inhibition of LPS production (gut microbiota): + (weakly (+; >20-60%)) | SHSY5Y cell Induction of BDNF expression (BDNF): − (not or less than 20% (−; <20%))

Bifidobacterium adolescentis NK222
Macrophage Inhibition of TNF-α expression (TNF-α): + (weakly (+; >20-60%)) | Macrophage Induction of IL-10 expression (IL-10): + (weakly (+; >20-60%)) | Gut microbiota Inhibition of difficile bacteria proliferation (Clostridium difficile): + (weakly (+; >20-60%)) | Antioxidant activity [1]: + (weakly (+; >20-60%)) | PC12 cell Induction of NPY expression (Neuropeptide Y (NPY)): + (weakly (+; >20-60%)) | Gut microbiota Inhibition of LPS production (gut microbiota): + (weakly (+; >20-60%)) | SHSY5Y cell Induction of BDNF expression (BDNF): − (not or less than 20% (−; <20%))

Bifidobacterium bifidum NK223
Macrophage Inhibition of TNF-α expression (TNF-α): + (weakly (+; >20-60%)) | Macrophage Induction of IL-10 expression (IL-10): + (weakly (+; >20-60%)) | Gut microbiota Inhibition of difficile bacteria proliferation (Clostridium difficile): − (not or less than 20% (−; <20%)) | Antioxidant activity [1]: + (weakly (+; >20-60%)) | PC12 cell Induction of NPY expression (Neuropeptide Y (NPY)): − (not or less than 20% (−; <20%)) | Gut microbiota Inhibition of LPS production (gut microbiota): − (not or less than 20% (−; <20%)) | SHSY5Y cell Induction of BDNF expression (BDNF): + (weakly (+; >20-60%))

Bifidobacterium bifidum NK224
Macrophage Inhibition of TNF-α expression (TNF-α): − (not or less than 20% (−; <20%)) | Macrophage Induction of IL-10 expression (IL-10): − (not or less than 20% (−; <20%)) | Gut microbiota Inhibition of difficile bacteria proliferation (Clostridium difficile): + (weakly (+; >20-60%)) | Antioxidant activity [1]: + (weakly (+; >20-60%)) | PC12 cell Induction of NPY expression (Neuropeptide Y (NPY)): + (weakly (+; >20-60%)) | Gut microbiota Inhibition of LPS production (gut microbiota): + (weakly (+; >20-60%)) | SHSY5Y cell Induction of BDNF expression (BDNF): − (not or less than 20% (−; <20%))

Bifidobacterium catenulatum NK225
Macrophage Inhibition of TNF-α expression (TNF-α): + (weakly (+; >20-60%)) | Macrophage Induction of IL-10 expression (IL-10): + (weakly (+; >20-60%)) | Gut microbiota Inhibition of difficile bacteria proliferation (Clostridium difficile): + (weakly (+; >20-60%)) | Antioxidant activity [1]: + (weakly (+; >20-60%)) | PC12 cell Induction of NPY expression (Neuropeptide Y (NPY)): − (not or less than 20% (−; <20%)) | Gut microbiota Inhibition of LPS production (gut microbiota): − (not or less than 20% (−; <20%)) | SHSY5Y cell Induction of BDNF expression (BDNF): − (not or less than 20% (−; <20%))

Bifidobacterium catenulatum NK226
Macrophage Inhibition of TNF-α expression (TNF-α): − (not or less than 20% (−; <20%)) | Macrophage Induction of IL-10 expression (IL-10): − (not or less than 20% (−; <20%)) | Gut microbiota Inhibition of difficile bacteria proliferation (Clostridium difficile): + (weakly (+; >20-60%)) | Antioxidant activity [1]: + (weakly (+; >20-60%)) | PC12 cell Induction of NPY expression (Neuropeptide Y (NPY)): − (not or less than 20% (−; <20%)) | Gut microbiota Inhibition of LPS production (gut microbiota): − (not or less than 20% (−; <20%)) | SHSY5Y cell Induction of BDNF expression (BDNF): + (weakly (+; >20-60%))

Bifidobacterium longum NK217
Macrophage Inhibition of TNF-α expression (TNF-α): + (weakly (+; >20-60%)) | Gut microbiota Inhibition of difficile bacteria proliferation (Clostridium difficile): − (not or less than 20% (−; <20%)) | Antioxidant activity [1]: + (weakly (+; >20-60%)) | PC12 cell Induction of NPY expression (Neuropeptide Y (NPY)): − (not or less than 20% (−; <20%)) | Gut microbiota Inhibition of LPS production (gut microbiota): − (not or less than 20% (−; <20%)) | SHSY5Y cell Induction of BDNF expression (BDNF): − (not or less than 20% (−; <20%))

Bifidobacterium pseudocatenulatum NK229
Macrophage Inhibition of TNF-α expression (TNF-α): + (weakly (+; >20-60%)) | Gut microbiota Inhibition of difficile bacteria proliferation (Clostridium difficile): − (not or less than 20% (−; <20%)) | Antioxidant activity [1]: + (weakly (+; >20-60%)) | PC12 cell Induction of NPY expression (Neuropeptide Y (NPY)): − (not or less than 20% (−; <20%)) | Gut microbiota Inhibition of LPS production (gut microbiota): − (not or less than 20% (−; <20%)) | SHSY5Y cell Induction of BDNF expression (BDNF): + (weakly (+; >20-60%))

Lactobacillus gasseri NK188
Macrophage Inhibition of TNF-α expression (TNF-α): + (weakly (+; >20-60%)) | Macrophage Induction of IL-10 expression (IL-10): + (weakly (+; >20-60%)) | Gut microbiota Inhibition of difficile bacteria proliferation (Clostridium difficile): + (weakly (+; >20-60%)) | Antioxidant activity [1]: + (weakly (+; >20-60%)) | PC12 cell Induction of NPY expression (Neuropeptide Y (NPY)): − (not or less than 20% (−; <20%)) | SHSY5Y cell Induction of BDNF expression (BDNF): − (not or less than 20% (−; <20%))

Lactobacillus paracasei NK190
Macrophage Inhibition of TNF-α expression (TNF-α): − (not or less than 20% (−; <20%)) | Macrophage Induction of IL-10 expression (IL-10): − (not or less than 20% (−; <20%)) | Gut microbiota Inhibition of difficile bacteria proliferation (Clostridium difficile): + (weakly (+; >20-60%)) | Antioxidant activity [1]: + (weakly (+; >20-60%)) | PC12 cell Induction of NPY expression (Neuropeptide Y (NPY)): + (weakly (+; >20-60%)) | SHSY5Y cell Induction of BDNF expression (BDNF): − (not or less than 20% (−; <20%))

Lactobacillus paracasei NK191
Macrophage Inhibition of TNF-α expression (TNF-α): − (not or less than 20% (−; <20%)) | Macrophage Induction of IL-10 expression (IL-10): + (weakly (+; >20-60%)) | Gut microbiota Inhibition of difficile bacteria proliferation (Clostridium difficile): − (not or less than 20% (−; <20%)) | Antioxidant activity [1]: + (weakly (+; >20-60%)) | PC12 cell Induction of NPY expression (Neuropeptide Y (NPY)): + (weakly (+; >20-60%)) | SHSY5Y cell Induction of BDNF expression (BDNF): + (weakly (+; >20-60%))

Lactobacillus paracasei NK192
Macrophage Inhibition of TNF-α expression (TNF-α): − (not or less than 20% (−; <20%)) | Macrophage Induction of IL-10 expression (IL-10): − (not or less than 20% (−; <20%)) | Gut microbiota Inhibition of difficile bacteria proliferation (Clostridium difficile): − (not or less than 20% (−; <20%)) | Antioxidant activity [1]: ++ (strongly (++; >60-90%)) | PC12 cell Induction of NPY expression (Neuropeptide Y (NPY)): − (not or less than 20% (−; <20%)) | SHSY5Y cell Induction of BDNF expression (BDNF): − (not or less than 20% (−; <20%))

Lactobacillus sakei NK199
Macrophage Inhibition of TNF-α expression (TNF-α): + (weakly (+; >20-60%)) | Gut microbiota Inhibition of difficile bacteria proliferation (Clostridium difficile): − (not or less than 20% (−; <20%)) | Antioxidant activity [1]: + (weakly (+; >20-60%)) | PC12 cell Induction of NPY expression (Neuropeptide Y (NPY)): − (not or less than 20% (−; <20%)) | Gut microbiota Inhibition of LPS production (gut microbiota): − (not or less than 20% (−; <20%)) | SHSY5Y cell Induction of BDNF expression (BDNF): − (not or less than 20% (−; <20%))

Lactococcus graminis NK206
Macrophage Inhibition of TNF-α expression (TNF-α): − (not or less than 20% (−; <20%)) | Macrophage Induction of IL-10 expression (IL-10): − (not or less than 20% (−; <20%)) | Antioxidant activity [1]: + (weakly (+; >20-60%)) | PC12 cell Induction of NPY expression (Neuropeptide Y (NPY)): + (weakly (+; >20-60%))

Lactococcus graminis NK207
Gut microbiota Inhibition of difficile bacteria proliferation (Clostridium difficile): + (weakly (+; >20-60%)) | Antioxidant activity [1]: − (not or less than 20% (−; <20%)) | PC12 cell Induction of NPY expression (Neuropeptide Y (NPY)): − (not or less than 20% (−; <20%)) | Gut microbiota Inhibition of LPS production (gut microbiota): + (weakly (+; >20-60%)) | SHSY5Y cell Induction of BDNF expression (BDNF): − (not or less than 20% (−; <20%))
